According to ChEMBL document CHEMBL4304773, “Nitroimidazole-containing compounds and their antibacterial and antitubercular activities” (2019):
Converted amounts (≈) assume the structure as drawn.

Experiments:
Type in all cases: functional
Staphylococcus aureus [1] = test: Antibacterial activity against Staphylococcus aureus ATCC 29213
Pseudomonas aeruginosa [2] = test: Antibacterial activity against Pseudomonas aeruginosa
Escherichia coli [3] = test: Antibacterial activity against Escherichia coli
Pseudomonas aeruginosa [4] = test: Antibacterial activity against Pseudomonas aeruginosa ATCC 27853
Staphylococcus aureus [5] = test: Antibacterial activity against Staphylococcus aureus ATCC 25923
Acinetobacter baumannii = test: Antibacterial activity against Acinetobacter baumannii
Escherichia coli [6] = test: Antibacterial activity against Escherichia coli ATCC 25922
Klebsiella pneumoniae = test: Antibacterial activity against Klebsiella pneumoniae
Staphylococcus aureus [7] = test: Antibacterial activity against methicillin-resistant Staphylococcus aureus N315
Enterococcus faecalis = test: Antibacterial activity against Enterococcus faecalis
Escherichia coli [8] = test: Antibacterial activity against Escherichia coli infected in mouse
Staphylococcus aureus [9] = test: Antibacterial activity against Staphylococcus aureus ATCC 25923 after 24 hrs by NCCLS method; details: ATCC 25923, 24 h
Bacillus subtilis = test: Antibacterial activity against Bacillus subtilis ATCC 530 after 24 hrs by NCCLS method; details: ATCC 530, 24 h
Pseudomonas aeruginosa [10] = test: Antibacterial activity against Pseudomonas aeruginosa ATCC 27853 after 24 hrs by NCCLS method; details: ATCC 27853, 24 h
Escherichia coli [11] = test: Antibacterial activity against Escherichia coli ATCC 25922 after 24 hrs by NCCLS method; details: ATCC 25922, 24 h

MIC (Staphylococcus aureus [9]) [µg/mL]	MIC (Bacillus subtilis) [µg/mL]	MIC (Pseudomonas aeruginosa [10]) [µg/mL]	MIC (Escherichia coli [11]) [µg/mL]	SMILES	MIC (Staphylococcus aureus [1]) [µM]	MIC (Pseudomonas aeruginosa [2]) [µM]	MIC (Escherichia coli [3]) [µM]	MIC (Pseudomonas aeruginosa [4]) [µM]	MIC (Staphylococcus aureus [5]) [µM]	MIC (Acinetobacter baumannii) [µM]	MIC (Escherichia coli [6]) [µM]	MIC (Klebsiella pneumoniae) [µM]	MIC (Staphylococcus aureus [7]) [µM]	MIC (Enterococcus faecalis) [µM]	ED50 (Escherichia coli [8]) [mg/kg]
				C=CCN1CCN(c2ccc3c4c(cccc24)C(=O)N(CC(O)Cn2c([N+](=O)[O-])cnc2C)C3=O)CC1 (stereo unspecified)	13 to 1020 (≈ 6.56 to 515 µg/mL)	13 to 1020 (≈ 6.56 to 515 µg/mL)	13 to 1020 (≈ 6.56 to 515 µg/mL)	13 to 1020 (≈ 6.56 to 515 µg/mL)	13 to 1020 (≈ 6.56 to 515 µg/mL)	13 to 1020 (≈ 6.56 to 515 µg/mL)	13 to 1020 (≈ 6.56 to 515 µg/mL)	13 to 1020 (≈ 6.56 to 515 µg/mL)	13 to 1020 (≈ 6.56 to 515 µg/mL)	13 to 1020 (≈ 6.56 to 515 µg/mL)	
				Cc1ncc([N+](=O)[O-])n1CC(O)CN1C(=O)c2cccc3c(N4CCCC4)ccc(c23)C1=O (stereo unspecified)	69 to 1140 (≈ 31 to 512 µg/mL)	69 to 1140 (≈ 31 to 512 µg/mL)	69 to 1140 (≈ 31 to 512 µg/mL)	69 to 1140 (≈ 31 to 512 µg/mL)	69 to 1140 (≈ 31 to 512 µg/mL)	69 to 1140 (≈ 31 to 512 µg/mL)	69 to 1140 (≈ 31 to 512 µg/mL)	69 to 1140 (≈ 31 to 512 µg/mL)	69 to 1140 (≈ 31 to 512 µg/mL)	69 to 1140 (≈ 31 to 512 µg/mL)	
				CCn1cc(C(=O)OC)c(=O)c2cc(F)c(N3CCN(CCn4c([N+](=O)[O-])cnc4C)CC3)cc21											3.5 to 13.2
3.12 to 50 (≈ 6.79 to 109 µM)	3.12 to 50 (≈ 6.79 to 109 µM)	3.12 to 50 (≈ 6.79 to 109 µM)	3.12 to 50 (≈ 6.79 to 109 µM)	Cc1nn(-c2ccccc2)c(Oc2ccccc2)c1/C=N/NC(=O)Cn1c([N+](=O)[O-])cnc1C											
3.12 to 50 (≈ 6.14 to 98.4 µM)	3.12 to 50 (≈ 6.14 to 98.4 µM)	3.12 to 50 (≈ 6.14 to 98.4 µM)	3.12 to 50 (≈ 6.14 to 98.4 µM)	Cc1ccc(-n2nc(C)c(/C=N/NC(=O)Cn3c([N+](=O)[O-])cnc3C)c2Oc2ccc(Cl)cc2)cc1											
				Cc1ncc([N+](=O)[O-])n1CC(O)CN1C(=O)c2cccc3c(N4CCNCC4)ccc(c23)C1=O (stereo unspecified)	69 to 1140 (≈ 32 to 530 µg/mL)	69 to 1140 (≈ 32 to 530 µg/mL)	69 to 1140 (≈ 32 to 530 µg/mL)	69 to 1140 (≈ 32 to 530 µg/mL)	69 to 1140 (≈ 32 to 530 µg/mL)	69 to 1140 (≈ 32 to 530 µg/mL)	69 to 1140 (≈ 32 to 530 µg/mL)	69 to 1140 (≈ 32 to 530 µg/mL)	69 to 1140 (≈ 32 to 530 µg/mL)	69 to 1140 (≈ 32 to 530 µg/mL)	
				Cc1ncc([N+](=O)[O-])n1CC(O)CN1C(=O)c2cccc3c(N4CCN(CC#N)CC4)ccc(c23)C1=O (stereo unspecified)	13 to 1020 (≈ 6.55 to 514 µg/mL)	13 to 1020 (≈ 6.55 to 514 µg/mL)	13 to 1020 (≈ 6.55 to 514 µg/mL)	13 to 1020 (≈ 6.55 to 514 µg/mL)	13 to 1020 (≈ 6.55 to 514 µg/mL)	13 to 1020 (≈ 6.55 to 514 µg/mL)	13 to 1020 (≈ 6.55 to 514 µg/mL)	13 to 1020 (≈ 6.55 to 514 µg/mL)	13 to 1020 (≈ 6.55 to 514 µg/mL)	13 to 1020 (≈ 6.55 to 514 µg/mL)	
				CCCCN1CCN(c2ccc3c4c(cccc24)C(=O)N(CC(O)Cn2c([N+](=O)[O-])cnc2C)C3=O)CC1 (stereo unspecified)	13 to 1020 (≈ 6.77 to 531 µg/mL)	13 to 1020 (≈ 6.77 to 531 µg/mL)	13 to 1020 (≈ 6.77 to 531 µg/mL)	13 to 1020 (≈ 6.77 to 531 µg/mL)	13 to 1020 (≈ 6.77 to 531 µg/mL)	13 to 1020 (≈ 6.77 to 531 µg/mL)	13 to 1020 (≈ 6.77 to 531 µg/mL)	13 to 1020 (≈ 6.77 to 531 µg/mL)	13 to 1020 (≈ 6.77 to 531 µg/mL)	13 to 1020 (≈ 6.77 to 531 µg/mL)	
				Cc1ncc([N+](=O)[O-])n1CC(O)CN1C(=O)c2cccc3c(N4CCOCC4)ccc(c23)C1=O (stereo unspecified)	69 to 1140 (≈ 32.1 to 531 µg/mL)	69 to 1140 (≈ 32.1 to 531 µg/mL)	69 to 1140 (≈ 32.1 to 531 µg/mL)	69 to 1140 (≈ 32.1 to 531 µg/mL)	69 to 1140 (≈ 32.1 to 531 µg/mL)	69 to 1140 (≈ 32.1 to 531 µg/mL)	69 to 1140 (≈ 32.1 to 531 µg/mL)	69 to 1140 (≈ 32.1 to 531 µg/mL)	69 to 1140 (≈ 32.1 to 531 µg/mL)	69 to 1140 (≈ 32.1 to 531 µg/mL)	
3.12 to 50 (≈ 6.59 to 106 µM)	3.12 to 50 (≈ 6.59 to 106 µM)	3.12 to 50 (≈ 6.59 to 106 µM)	3.12 to 50 (≈ 6.59 to 106 µM)	Cc1ccc(Oc2c(/C=N/NC(=O)Cn3c([N+](=O)[O-])cnc3C)c(C)nn2-c2ccccc2)cc1											
				CCOC(=O)c1cn(CC)c2nc(N3CCN(CCn4c([N+](=O)[O-])cnc4C)CC3)c(F)cc2c1=O											3.5 to 13.2
				Cc1ncc([N+](=O)[O-])n1CC(O)CN1C(=O)c2cccc3c(N4CCN(CCO)CC4)ccc(c23)C1=O (stereo unspecified)	13 to 1020 (≈ 6.61 to 519 µg/mL)	13 to 1020 (≈ 6.61 to 519 µg/mL)	13 to 1020 (≈ 6.61 to 519 µg/mL)	13 to 1020 (≈ 6.61 to 519 µg/mL)	13 to 1020 (≈ 6.61 to 519 µg/mL)	13 to 1020 (≈ 6.61 to 519 µg/mL)	13 to 1020 (≈ 6.61 to 519 µg/mL)	13 to 1020 (≈ 6.61 to 519 µg/mL)	13 to 1020 (≈ 6.61 to 519 µg/mL)	13 to 1020 (≈ 6.61 to 519 µg/mL)	
				CCOC(=O)c1cn(CC)c2cc(N3CCN(CCn4c([N+](=O)[O-])cnc4C)CC3)c(F)cc2c1=O											3.5 to 13.2
				CCN1CCN(c2ccc3c4c(cccc24)C(=O)N(CC(O)Cn2c([N+](=O)[O-])cnc2C)C3=O)CC1 (stereo unspecified)	13 to 1020 (≈ 6.4 to 502 µg/mL)	13 to 1020 (≈ 6.4 to 502 µg/mL)	13 to 1020 (≈ 6.4 to 502 µg/mL)	13 to 1020 (≈ 6.4 to 502 µg/mL)	13 to 1020 (≈ 6.4 to 502 µg/mL)	13 to 1020 (≈ 6.4 to 502 µg/mL)	13 to 1020 (≈ 6.4 to 502 µg/mL)	13 to 1020 (≈ 6.4 to 502 µg/mL)	13 to 1020 (≈ 6.4 to 502 µg/mL)	13 to 1020 (≈ 6.4 to 502 µg/mL)	
				CCn1cc(C(=O)O)c(=O)c2cc(F)c(N3CCN(CCn4c([N+](=O)[O-])cnc4C)CC3)cc21											2.56 to 3.88
